From article PMC10520499, “Next step in the development of mesoprogestins: the preclinical profile of EC313” (Frontiers in Endocrinology, 2023)

Key:
cycling guinea pigs = assay: Ovulation inhibition in cycling guinea pigs; assay type: in vivo, guinea pig; details: cycle days 10-17
Description: Test compounds were administered once daily from cycle days 10-17 by s. c. injection using 0.2 mL vehicle (benzyl-benzoate/castor oil, ratio 1 + 4 v/v). The time of autopsy (day 18) was 24-48h after the expected ovulation at the end of the treatment cycle. This design permits the study of the effects of the tested compounds on the expected ovulation. Fresh CL were evidence of a recent ovulation.

T47D cells = assay: Proliferation / arrest in Go/G1 in T47D cells; assay type: cell-based, human; design: key to Arrest in Go/G1: ↓/↑ - decreased/increased action of tested compounds.; ↓/↑ - decreased/increased action of tested compounds; details: Proliferation; T47D cells; statistical significance not always reached
PR-B – NCoR = target: T1, PR-B – NCoR (Homo sapiens, UniProt P06401); assay: PR-B – NCoR interaction, two-hybrid system; assay type: cell-based
T1 construct: expressed in transfected cells
T1 sequence (P06401 whole entry): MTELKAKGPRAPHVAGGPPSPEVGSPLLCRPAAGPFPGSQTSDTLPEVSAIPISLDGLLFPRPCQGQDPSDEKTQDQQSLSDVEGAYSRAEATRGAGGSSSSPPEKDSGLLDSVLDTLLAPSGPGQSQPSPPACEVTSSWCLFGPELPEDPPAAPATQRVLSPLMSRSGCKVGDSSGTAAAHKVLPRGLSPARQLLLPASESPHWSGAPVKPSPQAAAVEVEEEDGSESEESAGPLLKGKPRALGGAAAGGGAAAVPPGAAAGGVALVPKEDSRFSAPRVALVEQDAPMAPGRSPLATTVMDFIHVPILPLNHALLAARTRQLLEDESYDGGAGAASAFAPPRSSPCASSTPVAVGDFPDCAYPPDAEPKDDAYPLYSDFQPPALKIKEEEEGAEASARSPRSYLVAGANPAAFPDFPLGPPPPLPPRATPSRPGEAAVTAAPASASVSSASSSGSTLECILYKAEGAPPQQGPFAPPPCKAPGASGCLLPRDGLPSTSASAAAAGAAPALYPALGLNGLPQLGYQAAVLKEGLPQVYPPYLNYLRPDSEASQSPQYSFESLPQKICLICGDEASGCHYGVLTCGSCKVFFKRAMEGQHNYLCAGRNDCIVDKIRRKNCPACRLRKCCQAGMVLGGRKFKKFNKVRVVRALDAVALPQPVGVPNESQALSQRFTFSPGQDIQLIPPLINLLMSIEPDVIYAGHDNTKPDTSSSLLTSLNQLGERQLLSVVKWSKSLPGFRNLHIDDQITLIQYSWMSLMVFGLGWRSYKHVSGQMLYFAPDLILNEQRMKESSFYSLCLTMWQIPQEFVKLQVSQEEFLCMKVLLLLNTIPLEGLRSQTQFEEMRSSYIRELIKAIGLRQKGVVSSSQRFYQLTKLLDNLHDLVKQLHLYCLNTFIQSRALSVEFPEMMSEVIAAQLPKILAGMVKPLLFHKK
T1 sequence (O75376 whole entry partner): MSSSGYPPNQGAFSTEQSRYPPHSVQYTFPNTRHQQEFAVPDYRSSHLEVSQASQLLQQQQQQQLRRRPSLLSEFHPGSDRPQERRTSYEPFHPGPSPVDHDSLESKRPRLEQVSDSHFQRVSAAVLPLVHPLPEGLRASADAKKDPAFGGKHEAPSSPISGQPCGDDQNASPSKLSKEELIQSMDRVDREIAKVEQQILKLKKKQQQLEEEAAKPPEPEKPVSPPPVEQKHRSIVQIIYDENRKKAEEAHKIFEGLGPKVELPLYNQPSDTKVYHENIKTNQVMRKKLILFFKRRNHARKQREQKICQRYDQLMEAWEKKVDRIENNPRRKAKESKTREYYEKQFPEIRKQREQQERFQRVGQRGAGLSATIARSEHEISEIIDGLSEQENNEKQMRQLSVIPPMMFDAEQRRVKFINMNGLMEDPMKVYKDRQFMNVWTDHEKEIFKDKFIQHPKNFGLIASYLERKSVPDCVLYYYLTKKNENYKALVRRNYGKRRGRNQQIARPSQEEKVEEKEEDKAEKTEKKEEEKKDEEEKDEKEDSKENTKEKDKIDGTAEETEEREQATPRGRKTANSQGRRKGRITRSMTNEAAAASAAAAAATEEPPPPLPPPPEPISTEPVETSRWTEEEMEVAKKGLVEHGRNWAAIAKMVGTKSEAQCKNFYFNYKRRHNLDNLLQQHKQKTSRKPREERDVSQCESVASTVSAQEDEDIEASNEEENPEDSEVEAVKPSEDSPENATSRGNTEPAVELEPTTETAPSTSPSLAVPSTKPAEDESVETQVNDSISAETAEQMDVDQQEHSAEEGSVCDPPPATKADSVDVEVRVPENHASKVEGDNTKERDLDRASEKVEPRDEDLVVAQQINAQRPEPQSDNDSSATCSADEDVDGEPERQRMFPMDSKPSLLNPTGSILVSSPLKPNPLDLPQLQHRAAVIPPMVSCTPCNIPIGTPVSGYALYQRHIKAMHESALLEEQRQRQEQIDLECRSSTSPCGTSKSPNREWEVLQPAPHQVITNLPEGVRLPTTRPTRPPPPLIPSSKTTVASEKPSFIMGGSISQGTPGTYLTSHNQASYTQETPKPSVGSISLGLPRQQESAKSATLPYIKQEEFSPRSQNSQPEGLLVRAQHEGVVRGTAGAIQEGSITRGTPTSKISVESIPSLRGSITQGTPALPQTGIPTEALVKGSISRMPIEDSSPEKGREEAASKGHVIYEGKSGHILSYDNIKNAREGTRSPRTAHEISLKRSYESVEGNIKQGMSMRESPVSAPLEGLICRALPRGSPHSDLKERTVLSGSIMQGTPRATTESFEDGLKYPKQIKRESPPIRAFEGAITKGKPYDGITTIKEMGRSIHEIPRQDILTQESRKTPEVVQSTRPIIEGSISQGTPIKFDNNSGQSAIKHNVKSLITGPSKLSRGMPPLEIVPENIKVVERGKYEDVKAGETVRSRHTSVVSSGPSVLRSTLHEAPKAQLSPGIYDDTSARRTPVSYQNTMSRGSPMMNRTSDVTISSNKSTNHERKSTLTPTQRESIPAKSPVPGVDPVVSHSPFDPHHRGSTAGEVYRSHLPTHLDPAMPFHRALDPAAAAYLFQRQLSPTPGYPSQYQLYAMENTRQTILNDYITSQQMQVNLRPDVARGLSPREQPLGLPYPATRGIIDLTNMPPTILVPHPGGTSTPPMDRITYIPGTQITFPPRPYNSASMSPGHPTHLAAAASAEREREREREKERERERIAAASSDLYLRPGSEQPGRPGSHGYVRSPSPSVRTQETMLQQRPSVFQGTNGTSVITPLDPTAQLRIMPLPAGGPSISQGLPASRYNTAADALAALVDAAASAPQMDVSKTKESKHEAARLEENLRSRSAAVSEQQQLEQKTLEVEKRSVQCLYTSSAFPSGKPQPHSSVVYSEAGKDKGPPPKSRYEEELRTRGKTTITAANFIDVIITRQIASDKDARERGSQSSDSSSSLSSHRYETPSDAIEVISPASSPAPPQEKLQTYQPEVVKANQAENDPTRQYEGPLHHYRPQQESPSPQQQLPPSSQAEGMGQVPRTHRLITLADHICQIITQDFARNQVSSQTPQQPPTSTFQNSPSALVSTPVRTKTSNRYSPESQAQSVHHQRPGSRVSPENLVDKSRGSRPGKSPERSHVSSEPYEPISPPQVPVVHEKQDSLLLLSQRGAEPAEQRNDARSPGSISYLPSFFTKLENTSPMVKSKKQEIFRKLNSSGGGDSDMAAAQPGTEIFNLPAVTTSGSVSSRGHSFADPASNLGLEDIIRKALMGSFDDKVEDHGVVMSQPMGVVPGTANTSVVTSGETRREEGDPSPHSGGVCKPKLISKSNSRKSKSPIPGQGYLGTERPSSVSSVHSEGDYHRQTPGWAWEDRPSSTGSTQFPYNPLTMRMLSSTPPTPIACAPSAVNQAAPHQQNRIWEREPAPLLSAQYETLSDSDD
Excerpt: The active recruitment of the nuclear corepressor NCoR results in transcriptional inactivity of the PR. So, the potency of PR ligands to induce the interaction of PR with NCoR provides information on the antagonistic potency of the ligand. Therefore, the capacity of EC313 to induce the interaction of PR-B with the corepressor NCoR in comparison with reference ligands was studied. All test compounds except the receptor agonist Promegestone induced PR to interact with NCoR.
Figure 11 (A) PR-B interaction with NCoR using a two-hybrid assay. Dose response curve. […] (B) Liganded PR-Binteraction with c-SRC kinase. The data presented are from five independent experiments. Signals are represented as mean luminescence ± SD normalized to maximal promegestone activity equal to 100%.

Cyclin D1 promotor = assay: Activation of Cyclin D1 promotor; assay type: cell-based, human; details: Other signal cascades
GR = target: T2, GR (Homo sapiens, UniProt P04150); assay: GR transactivation (HELA, MMTV-LUC); assay type: cell-based; design: HELA cells line carrying endogenous glucocorticoid protein; endogenous in cells; host or cells: HELA, stably transfected with the reporter only; details: comparative transactivation profile; read-out: Potency, GR Antagonism
T2 sequence (P04150 1-777): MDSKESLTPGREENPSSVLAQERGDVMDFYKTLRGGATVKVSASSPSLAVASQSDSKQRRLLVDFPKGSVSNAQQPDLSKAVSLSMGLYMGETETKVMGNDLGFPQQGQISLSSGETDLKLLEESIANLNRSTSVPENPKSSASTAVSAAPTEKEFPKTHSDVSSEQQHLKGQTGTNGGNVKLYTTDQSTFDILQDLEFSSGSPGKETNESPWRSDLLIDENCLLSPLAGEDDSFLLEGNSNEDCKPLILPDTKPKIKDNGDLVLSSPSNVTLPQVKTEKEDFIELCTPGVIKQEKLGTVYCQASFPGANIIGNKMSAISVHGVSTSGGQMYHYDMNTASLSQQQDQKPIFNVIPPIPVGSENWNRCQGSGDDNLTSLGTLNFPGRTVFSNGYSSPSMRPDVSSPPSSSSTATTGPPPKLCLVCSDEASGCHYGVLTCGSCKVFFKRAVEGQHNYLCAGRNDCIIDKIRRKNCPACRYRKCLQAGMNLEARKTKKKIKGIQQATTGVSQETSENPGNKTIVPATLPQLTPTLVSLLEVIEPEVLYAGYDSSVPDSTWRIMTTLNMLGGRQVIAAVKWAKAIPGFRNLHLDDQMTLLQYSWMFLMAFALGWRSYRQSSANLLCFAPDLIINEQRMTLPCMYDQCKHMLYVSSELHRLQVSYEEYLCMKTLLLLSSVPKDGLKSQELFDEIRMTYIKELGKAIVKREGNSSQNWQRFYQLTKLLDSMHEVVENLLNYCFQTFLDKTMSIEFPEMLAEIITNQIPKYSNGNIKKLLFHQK
Description: HELA cells line carrying endogenous glucocorticoid protein were cultured in order to study gene expression on the transcriptional level under the influence of the tested compounds. The cells were transfected with reporter vector MMTV/LUC. To produce high protein overexpression, stable transfection was carried out. […] Agonist and antagonist properties of EC313 toward tested receptor GR were analyzed using luminescence detection.
In order to develop the transfection assay, plasmids were generated and isolated. Vector pGL4.36 coding the glucocorticoid receptor responsive element MMTV and firefly luciferase reporter vector [luc2P/Hygro] were used as a reporter system (pGL4.36-MMTV/LUC). The cells were transfected with reporter vector MMTV/LUC.
stable transfection with reporter vector was performed on a 6-well plate (0.5x10^6 cells per well) in culture medium (EMEM, 10% FBS, NEAA, sodium […], L-glutamine). Briefly, according to the transfection procedure, cells were passaged, and they grew in a culture medium containing an appropriate concentration of the antibiotic (Hygromycin 150 µg/mL). Resistance to Hygromycin gene, which had been transfected together with the reporter vector to the cells, only allowed positively transfected cells to grow in this medium. Therefore, growing cell clones were selected for further steps as stable transfectants.
After 24h incubation of cells with the tested compounds, luciferase activity was measured using VICTOR™ X Multilabel Plate Reader -Perkin Elmer.

[1] = tested on: estrogen-primed endometrium of immature rabbits; assay: McPhail assay, estrogen-primed rabbit endometrium; assay type: in vivo; details: for Score 2 for PR-agonistic activity / Score 2 for PR-antagonistic activity: dose giving McPhail score 2; for Score 2 for PR-antagonistic activity: concomitant progesterone (1 g/animal/day [sic] s.c.)
Description: The secretory transformation of estrogen-primed endometrium of immature rabbits indicates the strength of the progestagenic action on the endometrium of the chosen test compound. The simultaneous administration of test compounds with progesterone can indicate potential anti-progestagenic actions.
Female rabbits received daily s.c. injections of 5.0 µg 17β-Estradiol/per animal for 6 days leading to the proliferation of the endometrium. From day 7 to day 13 the animals received doses of vehicle, EC313 (1 to 30 mg/animal/day s.c) or progesterone. On day 14, the animals were sacrificed and the uteri were processed for histological evaluation and the secretory endometrial transformation was rated according to a modified McPhail score (1 – 4).
The rating scale ranges from 1 (no or very low secretory, transformation, or agonistic activity) to 4 (highest secretory, transformation, or agonistic activity). The McPhail score of 2 (median) was selected for the comparison. The antagonistic activity was measured by the concomitant administration of progesterone ([…] s.c.).

Row | Compound | Number of ovulations vs. number of inseminated females (cycling guinea pigs; 10.0 mg/animal/day s.c.) | Arrest in Go/G1 (T47D cells) | Number of ovulations vs. number of inseminated females (cycling guinea pigs; 3.0 mg/animal/day s.c.) | Score 2 for PR-agonistic activity [1] | Score 2 for PR-antagonistic activity [1] | also measured
1 | Telapristone acetate [CDB 4124 Telapristone acetate, reference compound] | 1/3 | – | – | – | – | –
2 | CC#C[C@]1(O)CC[C@H]2[C@@H]3CCC4=CC(=O)CCC4=C3[C@@H](c3ccc(N(C)C)cc3)C[C@@]21C [Mifepristone, reference compound] | 0/3 | ↑ | 2/5 | – | – | Number of ovulations vs. number of inseminated females (cycling guinea pigs; 1.0 mg/animal/day s.c.): 4/5
3 | CCC(=O)[C@@]1(C)CC[C@H]2[C@@H]3CCC4=CC(=O)CCC4=C3CC[C@@]21C [Promegestone, reference compound] | – | ↓ | – | – | – | induction of PR interaction with NCoR (PR-B – NCoR): does not induce NCoR interaction
4 | C[C@]12C[C@H](c3ccc(-n4ccnc4)cc3)C3=C4CCC(=O)C=C4CCC3C1CC[C@@]2(O)C(F)(F)C(F)(F)F (stereo partly shown) [EC317] | 0/6 | ↑ | 0/6 | – | – | Activation of Cyclin D1 promotor (Cyclin D1 promotor): unclear*; Number of ovulations vs. number of inseminated females (cycling guinea pigs; 0.1 mg/animal/day s.c.): 2/3; Number of ovulations vs. number of inseminated females (cycling guinea pigs; 0.3 mg/animal/day s.c.): 3/3; Number of ovulations vs. number of inseminated females (cycling guinea pigs; 1.0 mg/animal/day s.c.): 0/3
5 | COC[C@]1(OC)CC[C@H]2[C@@H]3CCC4=CC(=O)CCC4=C3[C@@H](c3ccc(/C=N/O)cc3)C[C@@]21C [Asoprisnil, reference compound] | – | ↑ | – | ~ 0.2 mg/animal/day s.c. | ~ 0.3 mg/animal/day s.c. | IC50 (GR): 1230 nM; Quotient between antagonistic and agonistic action ([1]; McPhail score 2 doses): ~ 1.5; efficacy relative to Ulipristal acetate, NCoR interaction (PR-B – NCoR): 56%; induction of PR interaction with NCoR (PR-B – NCoR): limited ability to induce progesterone receptor interaction with NCoR
6 | CC(=O)[C@H]1CC[C@H]2[C@@H]3CCC4=CC(=O)CC[C@]4(C)[C@H]3CC[C@]12C [Progesterone] | – | – | – | ~ 0.1 mg/animal/day s.c. | n.a. “pure” agonist | –
7 | C[C@]12C[C@H](c3ccc(S(C)(=O)=O)cc3)C3=C4CCC(=O)C=C4CC[C@H]3[C@@H]1CC[C@@]2(O)C(F)(F)C(F)(F)F [Vilaprisan, reference compound] | 0/4 | – | 0/5 | n.a.;”pure” antagonist | < 0.3 mg/animal/day s.c. | IC50 (GR): 629 nM
